From patent US7064141B1, “Method for preventing, treating or inhibiting development of simple retinopathy and preproliferative retinopathy” (Takeda Pharmaceutical Company Limited, priority 1999, dated 2006)

Tests used:
[1] = test system: Diabetic Rats; assay: Retinal potential: latency of oscillatory potential peaks of diabetic rats; format: in vivo, rat; settings: STZ-diabetic SHRSP rats
Method: (§1) • Compound 1: (±)-1-(cyclohexyloxycarbonyloxy) ethyl-2-ethoxy-1-[[2′-(1H-tetrazol-5-yl)biphenyl-4-yl]methyl]-1H-benzimidazole-7-carboxylate (Compound 1) Method: Streptozotocin (STZ) was intravenously injected at a dose of 30 mg/kg to 10-week old male rats (Stroke-Prone Spontaneously Hypertensive Rat:SHRSP). When 9 weeks had passed since the injection of STZ, the blood sugar values of the rats were measured. The rats were divided into 3 groups, that is, a group before the administration, a solvent-administered control group and an administered group with the compound 1 (3 mg/kg/day, p.o.). Four weeks after, the blood sugar values and the retinal potentials were measured, and then, the rats were killed by bleeding by discission of the aorta abdominalis under deep ether anesthetization so as to remove the eyeball. A suspension of the compound 1 in a 0.5% methylcellulose-containing physiological saline was orally administered to the rats once a day for 4 weeks. On the other hand, 23-week old SHRSP rats were used as an untreated group.
The retinal potential was measured by the following method. The subject animal was subjected to dark adaptation in a dark room for 90 to 120 minutes, and then, anesthetized with ketamine hydrochloride (50 mg/kg, i.m.) and immobilized with xylazine (2 mg/kg, i.m.). The limb and the head of the subject animal were fixed with a string. Mydriatic was dropped on the left eyeball to widen the pupil, and a contact lens type electrode was placed on the cornea using a contact lens-wearing auxiliary. A xenon lamp (1.2 joules) was set at a position 10 cm distant in the forward direction from the eye to be tested (the left eye), and light stimuli were controlled by a light stimulator (SLS-3100 manufactured by Nippon Koden K.K.). The retinal potential generated by light stimuli (0.5 Hz, 16 times) was amplified by a Neuropack (MEB-5100 manufactured by Nippon Koden K.K., Low cut 0.5 Hz, and sweeping time: 200 msec). The results were added and averaged. The latency of oscillatory potential peaks (O1, O2 and O3) was counted from the resultant waveforms.

[2] = test system: Retinal VEGF mRNA; assay: Retinal VEGF mRNA of diabetic rats, semi-quantitative RT-PCR; format: in vivo, rat; settings: STZ-diabetic SHRSP rats
Method: as §1, with “On the other hand, 23-week old SHRSP rats were used as an untreated group.” left out
VEGF mRNA in the retina was quantitatively determined as follows. […] The quantity of VEGF mRNA was measured from the extracted RNA by the semi-quantitative RT-PCR process (ABI PRISM 7700: Perkin Elmer) using two kinds of fluorescent probes (FAM: VEGF, and VIC: β-action). The quantity of VEGF mRNA was corrected by the quantity of β-action mRNA and calculated provided that the quantity of VEGF mRNA of SD rat retina was defined as 1.

[3] = 3 mg/kg/day p.o. for 4 weeks, n = 4, average ± standard deviation

CCOc1nc2cccc(C(=O)OC(C)OC(=O)OC3CCCCC3)c2n1Cc1ccc(-c2ccccc2-c2nnn[nH]2)cc1 (racemic) [Compound 1, (±)-1-(cyclohexyloxycarbonyloxy) ethyl-2-ethoxy-1-[[2′-(1H-tetrazol-5-yl)biphenyl-4-yl]methyl]-1H-benzimidazole-7-carboxylate]
Latency of oscillatory potential peak O1 [1, 3]: 23.81 ± 0.42 ms
Latency of oscillatory potential peak O2 [1, 3]: 32.88 ± 1.17 ms
Latency of oscillatory potential peak O3 [1, 3]: 43.39 ± 1.86 ms
Latency of oscillatory potential peaks O1, O2 and O3, in words ([1]; 3 mg/kg/day p.o., 4 weeks): latency was reduced in any of the O1, O2 and O3
Latency of oscillatory potential peak O1 compared with the control group, in words ([1]; 3 mg/kg/day p.o., 4 weeks, Dunnett's t Test): significant improvement
Retinal VEGF mRNA (VEGF mRNA of SD rat determined as 1) ([2]; 3 mg/kg/day p.o. for 4 weeks, n = 4, corrected by β-action mRNA, average ± standard deviation): 0.99 ± 0.14
Quantity of VEGF mRNA in the retinal tissue, in words ([2]; 3 mg/kg/day p.o., 4 weeks): significantly decreased
